Data taken from patent publication US20260231994A1, “TASTE-ENHANCING COMPOSITION, METHOD FOR PRODUCING SAME, FOOD PRODUCT, AND METHOD FOR ENHANCING TASTE OF FOOD PRODUCT” (HOUSE FOODS GROUP INC., priority 2023, published 2026).

Experiments:
Assay type in all cases: in vivo
[1] = Experiment 6 sensory evaluation of cyclic dipeptides, “top sharp saltiness”
Summary of the method: (§1)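 Reduced-sodium curry roux (44 g in 300 g hot water) was spiked with cyclic dipeptide solutions matching heat-treated coriander or paprika levels, at 0.5% or 1.0% (w/w) final. Three evaluators scored each sample against unspiked reduced-sodium and common roux. Mean scores were graded F to AA.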

[2] = Experiment 1 sensory evaluation of “boosting of flavor” (cyclic dipeptides, coriander); details: for “boosting of flavor” Average: cyclic dipeptide aqueous solution (concentration as in heat-treated coriander) at final 0.2% (w/w) in reduced-sodium curry roux dispersion, score 1-5; for “boosting of flavor” Evaluation: cyclic dipeptide aqueous solution at final 0.2% (w/w) in reduced-sodium curry roux dispersion, class of average score
Method: Flour roux was prepared by putting 20 g of flour and 30 g of beef tallow in a pan, then heating with stirring at 120° C. To this flour roux were added 10 g of sodium chloride, 10 g of sugar, 10 g of cornstarch, 5 g of curry powder and 15 g of other seasoning ingredients (vegetable and fruit extracts, yeast extract and seafood extract), and after heat-treatment to 105° C., the mixture was cooled and solidified, to form a block of common curry roux.
The sodium chloride equivalent per 100 g of this curry roux was 10.6 g.
Reduced-sodium curry roux was prepared according to the same procedure, except that the amount of sodium chloride was reduced to 7 g from the amount in the common curry roux in (1).
The sodium chloride equivalent per 100 g of this reduced-sodium curry roux was 7.7 g.
Out of the cyclic dipeptides included in the heat-treated coriander prepared in 1.1. described above, which were confirmed to be increased in 1.2. above, an aqueous solution of the respective 14 cyclic dipeptides shown in the table described below was prepared. The concentration of the cyclic dipeptide in each aqueous solution was set to be equal to its concentration in the heat-treated coriander prepared in 1.1. described above, which was estimated from the ratio of the peak area of the cyclic dipeptide to the peak area of the internal standard (47 μg/g L-lysine-^13C6 monohydrochloride) confirmed in 1.2. described above.
Two dispersions of 44 g of the reduced-sodium curry roux in (2) dispersed in 300 g of hot water were prepared.
To one of them was added the heat-treated coriander or the powdered unheated coriander prepared in 1.1. described above, or the cyclic dipeptide aqueous solution (corresponding to the heat-treated coriander) prepared in (3) above, so that the final concentration was 0.2% (w/w), and a sensory evaluation was carried out.
Forty-four grams of the common curry roux in (1) was dispersed in 300 g of hot water.
The dispersion of reduced-sodium curry roux dispersed in hot water and the dispersion of common curry roux dispersed in hot water were used as comparative controls, and the strength of the flavor was evaluated by four evaluators on the basis of the following evaluation criteria from the viewpoint of “boosting of flavor.” The term “boosting of flavor” in this experiment is an effect concerted by the combination of sodium chloride and other foodstuffs in curry roux, and is an aspect of “saltiness.” Thus, the “flavor” in this experiment can be also expressed as “saltiness.”
The average of the evaluated scores was defined as “F” when it was 1.0 or lower, “C” when it was 1.1 or higher and 1.9 or lower, “B” when it was 2.0 or higher and 2.5 or lower, “A” when it was 2.6 or higher and 2.9 or lower, and “AA” when it was 3.0 or higher.

[3] = Experiment 6 sensory evaluation of cyclic dipeptides, “boosting of last flavor (aftertaste)”
Summary of the method: as §1

[4] = Experiment 6 sensory evaluation of cyclic dipeptides, “middle fullness (enhanced thickness)”
Summary of the method: as §1

[5] = Additive amount coriander 0.5% (heat-treated coriander equivalent aqueous solution, final 0.5% (w/w)), reduced-sodium curry roux
[6] = Additive amount coriander 0.5%, reduced-sodium curry roux
[7] = heat-treated coriander equivalent aqueous solution of cyclic dipeptide, final 1.0% (w/w) in reduced-sodium curry roux dispersion
[8] = heat-treated coriander equivalent aqueous solution of cyclic dipeptide, final 1.0% (w/w) in reduced-sodium curry roux dispersion, 3 evaluators
[9] = Additive amount paprika 0.5% (heat-treated paprika equivalent aqueous solution, final 0.5% (w/w)), reduced-sodium curry roux
[10] = Additive amount paprika 0.5%, reduced-sodium curry roux
[11] = heat-treated paprika equivalent aqueous solution of cyclic dipeptide, final 1.0% (w/w) in reduced-sodium curry roux dispersion
[12] = heat-treated paprika equivalent aqueous solution of cyclic dipeptide, final 1.0% (w/w) in reduced-sodium curry roux dispersion, 3 evaluators

Substance | Top sharp saltiness Average [1, 5] | Top sharp saltiness Evaluation [1, 6] | Top sharp saltiness Evaluation [1, 7] | Top sharp saltiness Average [1, 8] | Bosting of last flavor Average [3, 6] | Bosting of last flavor Evaluation [3, 6] | Bosting of last flavor Evaluation [3, 7] | Bosting of last flavor Average [3, 8] | Top sharp saltiness Average [1, 9] | Top sharp saltiness Evaluation [1, 10] | Top sharp saltiness Evaluation [1, 11] | Top sharp saltiness Average [1, 12] | Bosting of last flavor Average [3, 10] | Bosting of last flavor Evaluation [3, 10] | Bosting of last flavor Evaluation [3, 11] | Bosting of last flavor Average [3, 12] | Middle fullness Average [4, 10] | Middle fullness Evaluation [4, 10] | Middle fullness Evaluation [4, 11] | Middle fullness Average [4, 12] | further results
cyclic (Leu/Ile-Val) [Coriander ID 42] | 2.5 points | B (“B” when it was 2.0 or higher and 2.5 or lower) | B (“B” when it was 2.0 or higher and 2.5 or lower) | 2.0 points | 3.0 points | AA (“AA” when it was 3.0 or higher) | A (“A” when it was 2.6 or higher and 2.9 or lower) | 2.7 points |  |  |  |  |  |  |  |  |  |  |  |  | “boosting of flavor” Average [2]: 2.0 points; “boosting of flavor” Evaluation [2]: B (“B” when it was 2.0 or higher and 2.5 or lower); Middle fullness Average [4, 6]: 2.8 points; Middle fullness Evaluation [4, 6]: A (“A” when it was 2.6 or higher and 2.9 or lower); Middle fullness Evaluation [4, 7]: A (“A” when it was 2.6 or higher and 2.9 or lower); Middle fullness Average [4, 8]: 2.7 points
cyclic (Ala-Leu/Ile) [Coriander ID 32] | 2.1 points | B (“B” when it was 2.0 or higher and 2.5 or lower) | B (“B” when it was 2.0 or higher and 2.5 or lower) | 2.5 points | 2.1 points | B (“B” when it was 2.0 or higher and 2.5 or lower) | AA (“AA” when it was 3.0 or higher) | 3.2 points |  |  |  |  |  |  |  |  |  |  |  |  | “boosting of flavor” Average [2]: 2.8 points; “boosting of flavor” Evaluation [2]: A (“A” when it was 2.6 or higher and 2.9 or lower); Middle fullness Average [4, 6]: 2.2 points; Middle fullness Evaluation [4, 6]: B (“B” when it was 2.0 or higher and 2.5 or lower); Middle fullness Evaluation [4, 7]: A (“A” when it was 2.6 or higher and 2.9 or lower); Middle fullness Average [4, 8]: 2.8 points
cyclic (Phe-Asp) [Coriander ID 34] |  |  |  |  |  |  |  |  | 3.0 points | AA (“AA” when it was 3.0 or higher) | AA (“AA” when it was 3.0 or higher) | 3.2 points | 2.7 points | A (“A” when it was 2.6 or higher and 2.9 or lower) | AA (“AA” when it was 3.0 or higher) | 3.2 points | 2.8 points | A (“A” when it was 2.6 or higher and 2.9 or lower) | AA (“AA” when it was 3.0 or higher) | 3.2 points | 
cyclic (Ala-Asp) [Coriander ID 58] |  |  |  |  |  |  |  |  | 3.0 points | AA (“AA” when it was 3.0 or higher) | AA (“AA” when it was 3.0 or higher) | 3.0 points | 3.2 points | AA (“AA” when it was 3.0 or higher) | AA (“AA” when it was 3.0 or higher) | 3.2 points | 3.3 points | AA (“AA” when it was 3.0 or higher) | AA (“AA” when it was 3.0 or higher) | 3.0 points | 
cyclic (Val-Arg) [Coriander ID 20] | 2.7 points | A (“A” when it was 2.6 or higher and 2.9 or lower) | C (“C” when it was 1.1 or higher and 1.9 or lower) | 1.7 points | 3.7 points | AA (“AA” when it was 3.0 or higher) | B (“B” when it was 2.0 or higher and 2.5 or lower) | 2.2 points |  |  |  |  |  |  |  |  |  |  |  |  | Middle fullness Average [4, 6]: 3.3 points; Middle fullness Evaluation [4, 6]: AA (“AA” when it was 3.0 or higher); Middle fullness Evaluation [4, 7]: B (“B” when it was 2.0 or higher and 2.5 or lower); Middle fullness Average [4, 8]: 2.0 points
cyclic (Val-Tyr) [Coriander ID 35] |  |  |  |  |  |  |  |  | 1.8 points | C (“C” when it was 1.1 or higher and 1.9 or lower) | B (“B” when it was 2.0 or higher and 2.5 or lower) | 2.3 points | 1.8 points | C (“C” when it was 1.1 or higher and 1.9 or lower) | B (“B” when it was 2.0 or higher and 2.5 or lower) | 2.3 points | 2.2 points | B (“B” when it was 2.0 or higher and 2.5 or lower) | B (“B” when it was 2.0 or higher and 2.5 or lower) | 2.2 points | 
cyclic (Gly-Ala) [Coriander ID 57] | 2.0 points | B (“B” when it was 2.0 or higher and 2.5 or lower) | B (“B” when it was 2.0 or higher and 2.5 or lower) | 2.2 points | 2.3 points | B (“B” when it was 2.0 or higher and 2.5 or lower) | A (“A” when it was 2.6 or higher and 2.9 or lower) | 2.7 points |  |  |  |  |  |  |  |  |  |  |  |  | Middle fullness Average [4, 6]: 2.0 points; Middle fullness Evaluation [4, 6]: B (“B” when it was 2.0 or higher and 2.5 or lower); Middle fullness Evaluation [4, 7]: B (“B” when it was 2.0 or higher and 2.5 or lower); Middle fullness Average [4, 8]: 2.5 points
cyclic (Glu-Glu) |  |  |  |  |  |  |  |  | 2.0 points | B (“B” when it was 2.0 or higher and 2.5 or lower) | B (“B” when it was 2.0 or higher and 2.5 or lower) | 2.2 points | 2.5 points | B (“B” when it was 2.0 or higher and 2.5 or lower) | B (“B” when it was 2.0 or higher and 2.5 or lower) | 2.2 points | 2.3 points | B (“B” when it was 2.0 or higher and 2.5 or lower) | B (“B” when it was 2.0 or higher and 2.5 or lower) | 2.5 points | 
cyclic (Leu/Ile-Ser) [Coriander ID 24] |  |  |  |  |  |  |  |  | 2.9 points | A (“A” when it was 2.6 or higher and 2.9 or lower) | C (“C” when it was 1.1 or higher and 1.9 or lower) | 1.7 points | 2.9 points | A (“A” when it was 2.6 or higher and 2.9 or lower) | B (“B” when it was 2.0 or higher and 2.5 or lower) | 2.2 points | 3.1 points | AA (“AA” when it was 3.0 or higher) | C (“C” when it was 1.1 or higher and 1.9 or lower) | 1.8 points | 
